This is an account of results in patent US10941121B2 (AZIENDA OSPEDALIERA UNIVERSITARIA SENESE, priority 2015, dated 2021).

Read-outs that look alike come from different tables or passages of the source. Some results are limits rather than exact numbers.

For series [1], the system named is Hepatitis C Virus (HCV) replicon system. In words: HCV replicon system, luciferase method in LucUbiNeo-ET cells. Particulars: for EC50: Hepatitis C virus, 48 h, read-out: EC50 (μM) HCV replicon system.
The target in series [2] is T1, DDX3 Helicase (Homo sapiens, UniProt O00571). The following applies: for IC50: read-out: ID50 (μM) against DDX3 Helicase, n.a. = compound not active.
Series [3] in a line: Cytotoxicity, MTT method in LUNET cells. It counts as cell-based. The following applies: human; MMT method in LUNET cells; read-out: CC50 (μM) non-infected cells. As to the method:
Toxicity (CC50) was analysed in the Lunet/HuH7 cells by the addition of 10 μL of MTT (3-(4,5-dimethylthiazol-2-yl)-2,5-diphenyltetrazolium bromide) per well. After 4 h of incubation at 37° C. in a humidified atmosphere with 5% CO2, the amount of formazan produced was quantified spectrophotometrically at 550/620 nm (C. Pannecouque et al, Nature protocol 2008; 3 (3): 427-434). […] These assays were done in duplicate.
A general note: Tetrazolium assays rely on reduction of a dye to a coloured formazan, in cell work by metabolically active cells.

The target of series [4] is T1, DDX3 Helicase. In words: biochemical.

T1 sequence (O00571 whole entry): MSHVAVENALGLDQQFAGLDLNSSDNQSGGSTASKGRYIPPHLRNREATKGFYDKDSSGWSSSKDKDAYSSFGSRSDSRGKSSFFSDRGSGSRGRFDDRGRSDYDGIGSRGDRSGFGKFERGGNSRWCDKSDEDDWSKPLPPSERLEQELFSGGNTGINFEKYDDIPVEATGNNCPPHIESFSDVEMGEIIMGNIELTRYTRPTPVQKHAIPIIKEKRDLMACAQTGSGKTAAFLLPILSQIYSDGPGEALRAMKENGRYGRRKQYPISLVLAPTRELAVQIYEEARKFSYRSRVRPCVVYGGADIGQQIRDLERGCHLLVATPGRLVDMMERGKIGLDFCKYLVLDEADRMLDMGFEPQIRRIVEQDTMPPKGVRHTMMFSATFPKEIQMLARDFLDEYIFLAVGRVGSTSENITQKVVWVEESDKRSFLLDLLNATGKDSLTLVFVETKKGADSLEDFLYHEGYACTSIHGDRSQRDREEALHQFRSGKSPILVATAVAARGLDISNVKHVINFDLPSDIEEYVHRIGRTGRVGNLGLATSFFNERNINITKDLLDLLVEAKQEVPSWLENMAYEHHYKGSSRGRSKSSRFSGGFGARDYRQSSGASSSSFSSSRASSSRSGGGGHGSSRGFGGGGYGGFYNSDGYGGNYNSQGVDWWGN

A word on the EC50: it is the concentration that produces a half-maximal response. The term CC50 denotes the concentration that lowers cell viability or growth by half. Regarding `CC(C)CCc1cn(-c2ccc(NC(=O)Nc3ccccc3F)cc2)nn1` [Compound 55a, 1-(2-fluorophenyl)-3-(4-(4-isopentyl-1H-1,2,3-triazol-1-yl)phenyl)urea], in series [1], the “activity against HCV, in words” value is given as “best activity” and the concentration giving a half-maximal response (EC50) is 0.4 µM. In addition, at DDX3 Helicase [2] (in words), the “DDX3 helicase activity compared with EI01D” value is recorded as “approximately ten-fold more active”. Moreover, the IC50 at DDX3 Helicase [2] stood at 0.12 µM. For the same molecule, the half-maximal cytotoxic concentration (CC50) in series [3] was above 340 µM.
As to `Cc1ccccc1NC(=O)Nc1ccc(-n2cc(CCOC(=O)CC(C)C)nn2)cc1` [Compound 37, 2-(1-(4-(3-(o-tolyl)ureido)phenyl)-1H-1,2,3-triazol-4-yl)ethyl 3-methylbutanoate], the EC50 in series [1] came to 11.7 µM. Further, at DDX3 Helicase [2], the IC50 was 1.3 µM. In series [3], the CC50 was found to be 180 µM.
Take `Cc1ccccc1NC(=O)Nc1ccc(-n2cc(CCN3CCOCC3)nn2)cc1` [Compound 35f, 1-(4-(4-(morpholinoethyl)-1H-1,2,3-triazol-1-yl)phenyl)-3-o-tolylurea]: the half-maximal effective concentration (EC50) in series [1] is above 125 µM. Also, in series [3], the CC50 was above 125 µM.
With `CCCC(C)C(F)c1cn(-c2ccc(NC(=O)Nc3ccccc3C(F)(F)F)cc2)nn1` (stereo not shown) [Compound 42c, 1-(4-(4-(1-fluoro-2-methylpentyl)-1H-1,2,3-triazol-1-yl)phenyl)-3-(2-(trifluoromethyl)phenyl) urea], on DDX3 Helicase [4], the IC50 is 0.3 µM.
For `Cc1ccccc1NC(=O)Nc1ccc(-n2cc(CO)nn2)cc1` [Compound 35a, 1-(4-(4-(hydroxymethyl)-1H-1,2,3-triazol-1-yl)phenyl)-3-o-tolylurea], at DDX3 Helicase [4], the IC50 turned out to be 17.5 µM.
Take `CCCCc1cn(-c2cccc(S(=O)(=O)Nc3ccc(OC)cc3)c2)nn1` [Compound 64b, 3-(4-butyl-1H-1,2,3-triazol-1-yl)-N-(4-methoxyphenyl)benzenesulfonamide]: the IC50 against DDX3 Helicase [4] amounted to 52.2 µM.
On to `Cc1ccccc1NC(=O)Nc1ccc(-n2cc(C(C)(C)C)nn2)cc1` [Compound 8b, 1-(4-(4-tert-butyl-1H-1,2,3-triazol-1-yl)phenyl)-3-o-tolylurea], for which the half-maximal effective concentration (EC50) in series [1] was found to be 5.73 µM. This molecule also displayed an IC50 against DDX3 Helicase [4] of 3.36 µM. Moreover, in series [3], the half-maximal cytotoxic concentration (CC50) turned out to be 100 µM.
With `CCc1cn(-c2ccc(NC(=O)Nc3ccccc3C)cc2)nn1` [Compound 8g, 1-(4-(4-ethyl-1H-1,2,3-triazol-1-yl)phenyl)-3-o-tolylurea], the 50% effective concentration (EC50) in series [1] stood at 36 µM. Also, the IC50 against DDX3 Helicase [4] turned out to be 0.98 µM. The cytotoxic concentration (CC50) in series [3] was found to be 295 µM.
Regarding `Cc1ccncc1NC(=O)Nc1ccc(-n2cc(CCC(C)C)nn2)cc1` [Compound 15b, 1-(4-(4-isopentyl-1H-1,2,3-triazol-1-yl)phenyl)-3-(4-methylpyridin-3-yl)urea], the EC50 in series [1] was 3.65 µM. Moreover, the IC50 against DDX3 Helicase [4] turned out to be 2 µM. In addition, the 50% cytotoxic concentration (CC50) in series [3] was 180 µM.
For the molecule `Cc1ccccc1NC(=O)Nc1ccc(-n2cc(CN3CCOCC3)nn2)cc1` [Compound 35e, 1-(4-(4-(morpholinomethyl)-1H-1,2,3-triazol-1-yl)phenyl)-3-o-tolylurea], in series [1], the concentration for a half-maximal effect (EC50) is above 125 µM. Moreover, the cytotoxic concentration (CC50) in series [3] was above 125 µM.
On DDX3 Helicase [4], `Cc1ccccc1NC(=O)Nc1ccc(-n2cc(CN(C)Cc3ccccc3)nn2)cc1` [Compound 8c, 1-(4-(4-methanamine,N-[(phenyl)methyl]-N-methyl-1H-1,2,3-triazol-1yl)phenyl)-3-o-tolylurea] yielded an IC50 of 22.8 µM.
The same measure, in the same setting: to `CCCCc1cn(-c2ccc(S(=O)(=O)Nc3ccccc3O)cc2)nn1` [Compound 65a, 4-(4-butyl-1H-1,2,3-triazol-1-yl)-N-(2-hydroxyphenyl)benzenesulfonamide] belongs 15.5 µM.
`Cc1cn(-c2ccc(NC(=O)Nc3ccccc3C)cc2)nn1` [Compound 8f, 1-(4-(4-methyl-1H-1,2,3-triazol-1-yl)phenyl)-3-o-tolylurea]: in series [1], the concentration for a half-maximal effect (EC50) was above 36 µM. In addition, in series [3], the CC50 was 36 µM.
For the molecule `Cc1ccccc1NC(=O)Nc1ccc(-n2cc(CCO)nn2)cc1` [Compound 35b, 1-(4-(4-(hydroxyethyl)-1H-1,2,3-triazol-1-yl)phenyl)-3-o-tolylurea], in series [1], the half-maximal effective concentration (EC50) is 28.9 µM. This molecule also showed an IC50 at DDX3 Helicase [4] of 20 µM. Further, the CC50 in series [3] was above 370 µM.
With `CC(C)CC(=O)OCCc1cn(-c2ccc(NC(=O)Nc3ccccc3C(F)(F)F)cc2)nn1` [Compound 38, 2-(1-(4-(3-(2-(trifluoromethyl)phenyl)ureido)phenyl)-1H-1,2,3-triazol-4-yl)ethyl 3-methylbutanoate], the EC50 in series [1] came out at 0.5 µM. Moreover, at DDX3 Helicase [2], the IC50 was 0.4 µM. Besides, in series [3], the CC50 came to 23.2 µM.
Consider `CCOCn1nnc(-c2ccc(NC(=O)Nc3ccccc3C)cc2)n1` [Compound 50, 1-(4-(2-(ethoxymethyl)-2H-tetrazol-5-yl)phenyl)-3-(o-tolyl)urea], for which the EC50 in series [1] amounted to 22.8 µM. This molecule gave an IC50 against DDX3 Helicase [4] of 14 µM. Further, the 50% cytotoxic concentration (CC50) in series [3] was 245 µM.
Turning to `O=C(Nc1ccc(-n2cc(CCOC(=O)/C=C/c3ccc4c(c3)OCO4)nn2)cc1)Nc1ccccc1C(F)(F)F` [Compound 39, 2-(1-(4-(3-(2-(trifluoromethyl)phenyl)ureido)phenyl)-1H-1,2,3-triazol-4-yl)ethyl 3-(benzo[d][1,3]dioxol-5-yl)acrylate], the EC50 in series [1] worked out at 4.3 µM. The IC50 at DDX3 Helicase [2] was 5.1 µM. Besides, in series [3], the CC50 was found to be 28.6 µM.
Regarding `CCCCn1nnc(-c2ccc(NC(=O)Nc3cnccc3C)cc2)n1` [Compound 52, 1-(4-(2-butyl-2H-tetrazol-5-yl)phenyl)-3-(4-methylpyridin-3-yl)urea], the IC50 against DDX3 Helicase [4] amounted to 2.49 µM.
For `Cc1ccccc1NC(=O)Nc1ccc(-n2cc(CCCN(C)C)nn2)cc1` [Compound 35i, 1-(4-(4-(dimethylaminopropyl)-1H-1,2,3-triazol-1-yl)phenyl)-3-o-tolylurea], the IC50 on DDX3 Helicase [2] amounted to 2.9 µM.
Consider `CCCCc1cn(-c2ccc(NC(=O)Nc3cnccc3C)cc2)nn1` [Compound 15a, 1-(4-(4-butyl-1H-1,2,3-triazol-1-yl)phenyl)-3-(4-methylpyridin-3-yl)urea], for which the IC50 on DDX3 Helicase [4] is 1.47 µM.
`Cc1nc(Cl)c2ccccc2c1NC(=O)Nc1ccc(-n2cc(CCC(C)C)nn2)cc1` [Compound 55g, 1-(1-chloro-3-methylisoquinolin-4-yl)-3-(4-(4-isopentyl-1H-1,2,3-triazol-1-yl)phenyl)urea]: the 50% effective concentration (EC50) in series [1] was 12.4 µM. The molecule further returned an IC50 against DDX3 Helicase [4] of 10 µM. Also, in series [3], the CC50 was above 278 µM.
`Cc1ccccc1NC(=O)Nc1ccc(-n2cc(C(F)(F)C(F)(F)C(F)(F)C(F)(F)F)nn2)cc1` [Compound 20c]: the EC50 in series [1] was above 125 µM. Besides, the IC50 at DDX3 Helicase [2] turned out to be 6 µM. Moreover, the CC50 in series [3] is above 125 µM.
